Assay results taken from ChEMBL document CHEMBL4613241, “Disulfide Cleavage in a Dimeric Epipolythiodioxopiperazine Natural Product Diminishes Its Apoptosis-Inducing Effect but Enhances Autophagy in Tumor Cells” (2020).
Active and inactive are the calls of the source. The rule behind the calls is not given here.

Experiments:
SW480 = assay: Antiproliferative activity against human SW480 cells assessed as reduction in cell viability by MTS assay; format: functional, cell-based
ACHN = assay: Antiproliferative activity against human ACHN cells assessed as reduction in cell viability at 0.5 uM measured up to 72 hrs by MTS assay; format: functional, cell-based
HepG2 [1] = assay: Inhibition of colony formation in human HepG2 at 0.1 uM after 2 weeks by trypan blue staining based assay relative to control; format: functional; settings: HepG2, 336 h
HCT-116 [2] = assay: Inhibition of colony formation in human HCT116 at 0.1 uM after 2 weeks by trypan blue staining based assay relative to control; format: functional; settings: HCT-116, 336 h
HepG2 [3] = assay: Induction of ROS generation in human HepG2 cells at 0.5 uM by DCFH-DA staining based fluorescence assay; format: functional, cell-based; settings: TDE = time-dependent effect
T-24 [4] = assay: Induction of apoptosis in human T24 cells assessed as increase in cleaved PARP1 level at 0.25 to 2 uM after 12 hrs by Western blot analysis; format: functional, cell-based
T-24 [5] = assay: Induction of autophagy in human T24 cells assessed as increase in ratio of LC3-2 to total Erk1/2 protein level at 0.5 uM after 12 hrs by Western blot analysis; format: functional, cell-based
HepG2 [6] = assay: Induction of apoptosis in human HepG2 cells assessed as increase in cleaved PARP level by measuring ratio of cleaved PARP to total PARP level at 2 uM after 12 hrs by Western blot analysis; format: functional
HepG2 [7] = assay: Induction of autophagy in human HepG2 cells assessed as ratio of LC3-2 to total Erk1/2 protein level at 0.5 uM after 4 hrs in presence of CQ by Western blot analysis (reference value: 2.6); format: functional
[8] = target: Serine/threonine-protein kinase mTOR (Homo sapiens) (UniProt P42345); assay: Inhibition of mTOR phosphorylation at S2448 residue in human HepG2 cells assessed as ratio of phosphorylated mTOR to total mTOR level at 0.1 uM after 4 hrs by Western blot analysis (reference value: 1); format: cell-based
[9] = target: Serine/threonine-protein kinase mTOR (Homo sapiens) (UniProt P42345); assay: Inhibition of mTOR phosphorylation at S2448 residue in human HepG2 cells assessed as ratio of phosphorylated mTOR to total ERK level at 0.1 uM after 4 hrs by Western blot analysis (reference value: 1); format: cell-based
[10] = target: Serine/threonine-protein kinase mTOR (Homo sapiens) (UniProt P42345); assay: Inhibition of mTOR phosphorylation at S2448 residue in human HepG2 cells assessed as ratio of phosphorylated mTOR to total ERK level at 0.25 uM after 4 hrs by Western blot analysis (reference value: 1); format: cell-based
[11] = target: RAC-alpha serine/threonine-protein kinase (Homo sapiens) (UniProt P31749); assay: Inhibition of AKT phosphorylation at S473 residue in human HepG2 cells assessed as ratio of phosphorylated Akt to total ERK level at 0.5 uM after 4 hrs by Western blot analysis (reference value: 1); format: cell-based
HepG2 [12] = assay: Activation of AMPKalpha in human HepG2 cells assessed as ratio of ACCalpha phosphorylation at S79 residue to total ERK level at 0.5 uM incubated for 4 hrs by Western blot analysis (reference value: 1); format: cell-based
HepG2 [13] = assay: Induction of autophagy in human HepG2 cells assessed as ratio of LC3-2 level to total Erk1/2 protein level at 0.5 uM after 4 hrs in presence of CC and CQ by Western blot analysis relative to CC; format: functional
HepG2 [14] = assay: Activation of AMPKalpha in human HepG2 cells assessed as ratio of phosphorylated AMPKalpha at T172 residue to total ERK level at 0.5 uM incubated for 4 hrs in presence of CC by Western blot analysis (reference value: 1); format: cell-based
HepG2 [15] = assay: Activation of AMPKalpha in human HepG2 cells assessed as ratio of phosphorylated ACCalpha at S79 residue to total ERK level at 0.5 uM incubated for 4 hrs in presence of CC by Western blot analysis (reference value: 1.1); format: cell-based
HepG2 [16] = assay: Induction of autophagy in human HepG2 cells assessed as ratio of LC3-2 level to total ERK level at 0.5 uM after 2 hrs by Western blot analysis (reference value: 1); format: functional
HepG2 [17] = assay: Induction of autophagy in human HepG2 cells assessed as ratio of LC3-2 level to total ERK level at 0.5 uM after 2 hrs in presence of CQ by Western blot analysis (reference value: 1); format: functional
HepG2 [18] = assay: Induction of autophagy in human HepG2 cells assessed as ratio of LC3-2 level to total ERK level at 0.5 uM after 2 hrs in presence of 2-DG and CQ by Western blot analysis (reference value: 3.9); format: functional
HepG2 [19] = assay: Induction of autophagy in human HepG2 cells ratio of LC3-2 level to total ERK level at 0.5 uM after 2 hrs in presence of CQ by Western blot analysis relative to CQ; format: functional
HepG2 [20] = assay: Induction of autophagy in human HepG2 cells assessed as ratio of LC3-2 level to total ERK level at 0.5 uM after 2 hrs in presence of PFK15 and CQ by Western blot analysis (reference value: 1.1); format: functional
HepG2 [21] = assay: Induction of autophagy in human HepG2 cells assessed as ratio of LC3-2 level to total ERK level at 0.5 uM after 2 hrs in presence of PFKFB3 siRNA and CQ by Western blot analysis (reference value: 0.8); format: functional
HepG2 [22] = assay: Induction of autophagy in human HepG2 cells ratio of LC3-2 level to total ERK level at 0.5 uM after 2 hrs in presence of PFKFB3 siRNA and CQ by Western blot analysis relative to PFKFB3 siRNA; format: functional
HepG2 [23] = assay: Induction of autophagy in human HepG2 cells assessed as ratio of LC3-2 level to total ERK level at 0.5 uM after 2 hrs in presence of HK2 siRNA and CQ by Western blot analysis (reference value: 3.1); format: functional
HepG2 [24] = assay: Antiproliferative activity against human HepG2 cells assessed as reduction in cell viability at 5 uM by MTS assay; format: functional, cell-based; settings: TDE = time-dependent effect
HepG2 [25] = assay: Inhibition of colony formation in human HepG2 at 1 to 5 uM after 2 weeks by trypan blue staining based assay; format: functional, cell-based
HCT-116 [26] = assay: Inhibition of colony formation in human HCT116 at 1 to 5 uM after 2 weeks by trypan blue staining based assay; format: functional, cell-based
T-24 [27] = assay: Induction of apoptosis in human T24 cells assessed as increase in cleaved PARP1 level at 5 uM after 12 hrs by Western blot analysis; format: functional, cell-based
HepG2 [28] = assay: Induction of autophagy in human HepG2 cells assessed as increase in formation of autophagosomes at 0.5 uM after 2 to 48 hrs by TEM analysis; format: functional, cell-based
HepG2 [29] = assay: Induction of autophagy in human HepG2 cells assessed as increase in formation of autophagosome-like vacuoles at 0.5 uM after 2 to 48 hrs by TEM analysis; format: functional, cell-based
HepG2 [30] = assay: Induction of autophagy in human HepG2 cells assessed as inhibition of lactate generation at 5 uM up to 4 hrs; format: functional, cell-based
HepG2 [31] = assay: Induction of autophagy in human HepG2 cells assessed as ratio of LC3-2 level to total ERK level at 0.5 uM after 2 hrs in presence of 2-DG by Western blot analysis (reference value: 1.1); format: functional

RAC-alpha serine/threonine-protein kinase (Homo sapiens), sequence (P31749 whole entry): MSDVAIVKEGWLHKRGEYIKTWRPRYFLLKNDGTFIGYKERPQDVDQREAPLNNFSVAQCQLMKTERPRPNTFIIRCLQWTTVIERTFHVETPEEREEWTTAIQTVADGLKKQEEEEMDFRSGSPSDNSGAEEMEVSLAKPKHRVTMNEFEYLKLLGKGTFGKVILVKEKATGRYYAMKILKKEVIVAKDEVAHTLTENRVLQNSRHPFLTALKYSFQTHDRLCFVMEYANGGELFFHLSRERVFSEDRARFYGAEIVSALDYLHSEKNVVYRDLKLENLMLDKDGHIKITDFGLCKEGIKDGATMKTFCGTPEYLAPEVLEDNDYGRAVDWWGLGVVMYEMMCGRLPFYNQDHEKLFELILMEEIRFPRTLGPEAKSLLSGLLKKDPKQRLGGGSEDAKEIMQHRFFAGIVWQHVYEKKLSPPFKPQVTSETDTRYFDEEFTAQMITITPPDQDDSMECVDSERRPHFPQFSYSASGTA

Compound | Activity (SW480) | Activity (T-24 [5]) | Ratio (HepG2 [7]) | Ratio [8] | Ratio [9] | Ratio [10] | Ratio [11] | Ratio (HepG2 [12]) | fold change (FC) (HepG2 [13]) | Ratio (HepG2 [14]) | Ratio (HepG2 [15]) | Ratio (HepG2 [16]) | Ratio (HepG2 [17]) | Ratio (HepG2 [18]) | fold change (FC) (HepG2 [19]) | Ratio (HepG2 [20]) | Ratio (HepG2 [21]) | fold change (FC) (HepG2 [22]) | Ratio (HepG2 [23]) | further results
CC[C@@]12SS[C@]3(C(=O)N1C)[C@@H](O)C1(C45c6ccccc6N[C@@H]4N4C(=O)[C@]6([C@@H](C)O)SS[C@]4(C(=O)N6C)[C@H]5O)c4ccccc4N[C@@H]1N3C2=O (some centres not stated) | Active | Active | 2.8 | 1.2 | 0.9 | 1 | 1.2 | 1.4 | 0.9 | 0.9 | 1 | 1.5 | 3.1 | 3.7 | 2.1 | 4.4 | 4.3 | 4.8 | 4.7 | Activity (ACHN): Active; inhibition at 0.1 µM (HepG2 [1]): 100%; inhibition at 0.1 µM (HCT-116 [2]): 100%; Activity (HepG2 [3]): Tde; Activity (T-24 [4]): Active; Ratio (HepG2 [6]): 1.7
CCC1(SC)C(=O)N2[C@H]3N(C)c4ccccc4C3(C34c5ccccc5N(C)[C@@H]3N3C(=O)C(SC)([C@@H](C)O)N(C)C(=O)C3(SC)[C@H]4O)[C@H](O)C2(SC)C(=O)N1C (some centres not stated) | Active | Active | 3.1 | 1.8 | 1 | 1 | 1.1 | 1.7 | 1.3 | 0.9 | 1.1 | 1.6 | 3.2 | 3.7 | 2.2 | 3.9 | 4.6 | 4.6 | 7.2 | Activity (HepG2 [24]): Tde; inhibition (HepG2 [25]): Active; inhibition (HCT-116 [26]): Active; Activity (T-24 [27]): inactive; Activity (HepG2 [28]): Active; Activity (HepG2 [29]): Active; inhibition (HepG2 [30]): Active; Ratio (HepG2 [31]): 1
